≈ marks a conversion by molar mass, not a printed value.
Experiments:
Format in all cases: cell-based
[1] = test system: A549 lung cancer stem cells; experiment: cytotoxic IC50 evaluation against A549 cells
From the text: (§1) Referring to FIG. 3, cytotoxic inhibitory concentration of 50 (IC50) evaluation of YS3 against various cancer cells is illustrated.

PC3 cancer stem cells = experiment: cytotoxic IC50 evaluation against PC3 cells
From the text: as §1

FaDu cancer stem cells = experiment: cytotoxic IC50 evaluation against FaDu cells; details: Homo sapiens, read from FIG. 3
From the text: as §1

[2] = test system: MDA-MB-468 cancer stem cells; experiment: cytotoxic IC50 evaluation against MDA-MB-468 cells; details: Homo sapiens, read from FIG. 3
From the text: as §1

HELA cancer stem cells = experiment: cytotoxic IC50 evaluation against HeLa cells
From the text: as §1

CCCCCOc1ccc(Oc2ccc(C=O)cc2)cc1 [YS3, 4-(4-(pentoxy)phenoxy)benzaldehyde]
performance compared to doxorubicin (DOX) ([1]; A549 cell line): comparable to DOX | IC50 ([1]; Homo sapiens, A549 lung cancer stem cells, read from FIG. 3): ~5 µg/mL (≈ 17.6 µM) | IC50 (PC3 cancer stem cells; Homo sapiens, PC-3, PC3 cancer stem cells, read from FIG. 3): ~4 µg/mL (≈ 14.1 µM) | performance compared to doxorubicin (DOX) (PC3 cancer stem cells; PC3 cell line): comparable to DOX | IC50 (FaDu cancer stem cells): ~4 µg/mL (≈ 14.1 µM) | IC50 [2]: ~4.5 µg/mL (≈ 15.8 µM) | performance compared to doxorubicin (DOX) (HELA cancer stem cells; HeLa cell line): comparable to DOX | IC50 (HELA cancer stem cells; Homo sapiens, HELA cancer stem cells, read from FIG. 3): ~5 µg/mL (≈ 17.6 µM)
